Results reported in the supplement of paper PMC12370961.

How the values were obtained:
Assay in all cases: differential drug sensitivity score (dDSS) relative to sarcoma reference cohort mean DSS (DSS units (0-100 scale difference)); higher = more selective sensitivity than reference sarcomas
Conditions in all cases: exposure time: 72 h; concentration range: 10-10000 nM
CDS-ZH003 = test system: CDS-ZH003 (patient-derived CIC-DUX4 sarcoma tumoroid)
Protocol: (§1)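 Drug response profiling of patient-derived Ewing sarcoma and CIC::DUX4 sarcoma tumoroid models (or cells tested directly after isolation from the tumor, 'direct'). The DSS is the normalised AUC (0-100); dDSS is the sample DSS minus the mean DSS of a 34-sarcoma reference cohort profiled in the same lab.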

CDS-ZH002 direct = test system: CDS-ZH002 direct (CIC-DUX4 sarcoma cells right after isolation)
Protocol: as §1

ES-ZH016 direct = test system: ES-ZH016 direct (Ewing sarcoma cells right after isolation)
Protocol: as §1

CDS-ZH001-2 = test system: CDS-ZH001-2 (patient-derived CIC-DUX4 sarcoma tumoroid)
Protocol: as §1

ES-ZH008 = test system: ES-ZH008 (patient-derived Ewing sarcoma tumoroid)
Protocol: as §1

ES-ZH016 = test system: ES-ZH016 (patient-derived Ewing sarcoma tumoroid)
Protocol: as §1

ES-ZH002 = test system: ES-ZH002 (patient-derived Ewing sarcoma tumoroid)
Protocol: as §1

CDS-ZH001 = test system: CDS-ZH001 (patient-derived CIC-DUX4 sarcoma tumoroid)
Protocol: as §1

CDS-ZH002 = test system: CDS-ZH002 (patient-derived CIC-DUX4 sarcoma tumoroid)
Protocol: as §1

ES-ZH001 = test system: ES-ZH001 (patient-derived Ewing sarcoma tumoroid)
Protocol: as §1

ES-ZH009 = test system: ES-ZH009 (patient-derived Ewing sarcoma tumoroid)
Protocol: as §1

ES-ZH007 = test system: ES-ZH007 (patient-derived Ewing sarcoma tumoroid)
Protocol: as §1

ES-ZH004 = test system: ES-ZH004 (patient-derived Ewing sarcoma tumoroid)
Protocol: as §1

O=C(NOC[C@H](O)CO)c1ccc(F)c(F)c1Nc1ccc(I)cc1F [Mirdametinib]
differential drug sensitivity score (CDS-ZH003): -3
differential drug sensitivity score (CDS-ZH002 direct): -2.9
differential drug sensitivity score (ES-ZH016 direct): -3
differential drug sensitivity score (CDS-ZH001-2): -3
differential drug sensitivity score (ES-ZH008): -1.9
differential drug sensitivity score (ES-ZH016): -3
differential drug sensitivity score (ES-ZH002): -3
differential drug sensitivity score (CDS-ZH001): -3
differential drug sensitivity score (CDS-ZH002): -3
differential drug sensitivity score (ES-ZH001): -3
differential drug sensitivity score (ES-ZH009): -3
differential drug sensitivity score (ES-ZH007): -3
differential drug sensitivity score (ES-ZH004): -3

CO[C@@]12[C@H](COC(N)=O)C3=C(C(=O)C(C)=C(N)C3=O)N1C[C@@H]1N[C@@H]12 [Mitomycin]
differential drug sensitivity score (CDS-ZH003): 0.6
differential drug sensitivity score (CDS-ZH002 direct): -3.8
differential drug sensitivity score (ES-ZH016 direct): 15.5
differential drug sensitivity score (CDS-ZH001-2): 1.6
differential drug sensitivity score (ES-ZH008): 18.4
differential drug sensitivity score (ES-ZH016): 17.3
differential drug sensitivity score (ES-ZH002): 22.4
differential drug sensitivity score (CDS-ZH001): -1.3
differential drug sensitivity score (CDS-ZH002): -4.7
differential drug sensitivity score (ES-ZH001): 14.4
differential drug sensitivity score (ES-ZH009): 6.6
differential drug sensitivity score (ES-ZH007): 9.5
differential drug sensitivity score (ES-ZH004): 10.3

O=C1c2c(O)ccc(O)c2C(=O)c2c(NCCNCCO)ccc(NCCNCCO)c21 [Mitoxantrone]
differential drug sensitivity score (CDS-ZH003): -2.1
differential drug sensitivity score (CDS-ZH002 direct): 0.4
differential drug sensitivity score (ES-ZH016 direct): 11.9
differential drug sensitivity score (CDS-ZH001-2): 9.1
differential drug sensitivity score (ES-ZH008): 9.8
differential drug sensitivity score (ES-ZH016): 14.7
differential drug sensitivity score (ES-ZH002): 21.8
differential drug sensitivity score (CDS-ZH001): 5.1
differential drug sensitivity score (CDS-ZH002): 3.5
differential drug sensitivity score (ES-ZH001): 10.9
differential drug sensitivity score (ES-ZH009): 10
differential drug sensitivity score (ES-ZH007): -1.8
differential drug sensitivity score (ES-ZH004): 5.1

Nc1ccccc1NC(=O)c1ccc(CNc2nccc(-c3cccnc3)n2)cc1 [Mocetinostat]
differential drug sensitivity score (CDS-ZH003): -9
differential drug sensitivity score (CDS-ZH002 direct): -0.9
differential drug sensitivity score (ES-ZH016 direct): 7.8
differential drug sensitivity score (CDS-ZH001-2): 1.5
differential drug sensitivity score (ES-ZH008): 7.1
differential drug sensitivity score (ES-ZH016): 1.4
differential drug sensitivity score (ES-ZH002): 2.4
differential drug sensitivity score (CDS-ZH001): -3.3
differential drug sensitivity score (CDS-ZH002): -2.7
differential drug sensitivity score (ES-ZH001): 0.8
differential drug sensitivity score (ES-ZH009): 1.8
differential drug sensitivity score (ES-ZH007): 2.6
differential drug sensitivity score (ES-ZH004): 8.4

CCNC(=O)C[C@@H]1N=C(c2ccc(Cl)cc2)c2cc(OC)ccc2-n2c(C)nnc21 [Molibresib]
differential drug sensitivity score (CDS-ZH003): -5.3
differential drug sensitivity score (CDS-ZH002 direct): -3.9
differential drug sensitivity score (ES-ZH016 direct): 4.2
differential drug sensitivity score (CDS-ZH001-2): -1
differential drug sensitivity score (ES-ZH008): 6.8
differential drug sensitivity score (ES-ZH016): 0.4
differential drug sensitivity score (ES-ZH002): 5.5
differential drug sensitivity score (CDS-ZH001): -1.2
differential drug sensitivity score (CDS-ZH002): -5.5
differential drug sensitivity score (ES-ZH001): 0.4
differential drug sensitivity score (ES-ZH009): 5.5
differential drug sensitivity score (ES-ZH007): -1.8
differential drug sensitivity score (ES-ZH004): -0.4

N#CCNC(=O)c1ccc(-c2ccnc(Nc3ccc(N4CCOCC4)cc3)n2)cc1 [Momelotinib]
differential drug sensitivity score (CDS-ZH003): -1.2
differential drug sensitivity score (CDS-ZH002 direct): -1.2
differential drug sensitivity score (ES-ZH016 direct): -0.5
differential drug sensitivity score (CDS-ZH001-2): -1.2
differential drug sensitivity score (ES-ZH008): -0.8
differential drug sensitivity score (ES-ZH016): 2.6
differential drug sensitivity score (ES-ZH002): 3.7
differential drug sensitivity score (CDS-ZH001): -1.2
differential drug sensitivity score (CDS-ZH002): -1.2
differential drug sensitivity score (ES-ZH001): 4
differential drug sensitivity score (ES-ZH009): 0.5
differential drug sensitivity score (ES-ZH007): -1.2
differential drug sensitivity score (ES-ZH004): -1.2

CCCN(CCC)C(=O)C1=Cc2ccc(-c3ccc(C(=O)N4CCCC4)cc3)cc2N=C(N)C1 [Motolimod]
differential drug sensitivity score (CDS-ZH003): -3.1
differential drug sensitivity score (CDS-ZH002 direct): 2.1
differential drug sensitivity score (ES-ZH016 direct): 0.4
differential drug sensitivity score (CDS-ZH001-2): 4.9
differential drug sensitivity score (ES-ZH008): 0.1
differential drug sensitivity score (ES-ZH016): 0.2
differential drug sensitivity score (ES-ZH002): 1.9
differential drug sensitivity score (CDS-ZH001): -2
differential drug sensitivity score (CDS-ZH002): -1.9
differential drug sensitivity score (ES-ZH001): 1.9
differential drug sensitivity score (ES-ZH009): -1.5
differential drug sensitivity score (ES-ZH007): -2.9
differential drug sensitivity score (ES-ZH004): -3.1

CO/N=C1\C[C@]2(C[C@@H]3C[C@@H](C/C=C(\C)C[C@@H](C)/C=C/C=C4\CO[C@@H]5[C@H](O)C(C)=C[C@@H](C(=O)O3)[C@]45O)O2)O[C@H](/C(C)=C/C(C)C)[C@H]1C [Moxidectin]
differential drug sensitivity score (CDS-ZH003): -4.8
differential drug sensitivity score (CDS-ZH002 direct): 0
differential drug sensitivity score (ES-ZH016 direct): 0
differential drug sensitivity score (CDS-ZH001-2): -5
differential drug sensitivity score (ES-ZH008): -1.8
differential drug sensitivity score (ES-ZH016): -0.4
differential drug sensitivity score (ES-ZH002): 3.7
differential drug sensitivity score (CDS-ZH001): 0.1
differential drug sensitivity score (CDS-ZH002): -3.7
differential drug sensitivity score (ES-ZH001): 0.2
differential drug sensitivity score (ES-ZH009): 3.8
differential drug sensitivity score (ES-ZH007): -0.2
differential drug sensitivity score (ES-ZH004): 0.9

O=c1cc(N2CCOCC2)oc2c(-c3cccc4c3sc3ccccc34)cccc12 [NU7441]
differential drug sensitivity score (CDS-ZH003): -4.3
differential drug sensitivity score (CDS-ZH002 direct): 1.5
differential drug sensitivity score (ES-ZH016 direct): 1.1
differential drug sensitivity score (CDS-ZH001-2): 1.9
differential drug sensitivity score (ES-ZH008): -0.8
differential drug sensitivity score (ES-ZH016): -3.9
differential drug sensitivity score (ES-ZH002): 8.5
differential drug sensitivity score (CDS-ZH001): -4.3
differential drug sensitivity score (CDS-ZH002): -4
differential drug sensitivity score (ES-ZH001): 0
differential drug sensitivity score (ES-ZH009): 2.9
differential drug sensitivity score (ES-ZH007): -4.3
differential drug sensitivity score (ES-ZH004): -1.9

CC1(C)CCC(c2ccc(Cl)cc2)=C(CN2CCN(c3ccc(C(=O)NS(=O)(=O)c4ccc(N[C@H](CCN5CCOCC5)CSc5ccccc5)c(S(=O)(=O)C(F)(F)F)c4)cc3)CC2)C1 [Navitoclax]
differential drug sensitivity score (CDS-ZH003): 0.6
differential drug sensitivity score (CDS-ZH002 direct): -5.8
differential drug sensitivity score (ES-ZH016 direct): 13.7
differential drug sensitivity score (CDS-ZH001-2): 2.5
differential drug sensitivity score (ES-ZH008): 10.4
differential drug sensitivity score (ES-ZH016): -6.4
differential drug sensitivity score (ES-ZH002): 17.3
differential drug sensitivity score (CDS-ZH001): -2.9
differential drug sensitivity score (CDS-ZH002): -7.6
differential drug sensitivity score (ES-ZH001): 6.7
differential drug sensitivity score (ES-ZH009): 4.9
differential drug sensitivity score (ES-ZH007): -7.4
differential drug sensitivity score (ES-ZH004): -3.4

CN1C(=O)N[C@H](Cc2c[nH]c3c(Cl)cccc23)C1=O [Necrostatin-2]
differential drug sensitivity score (CDS-ZH003): -2.7
differential drug sensitivity score (CDS-ZH002 direct): -2.5
differential drug sensitivity score (ES-ZH016 direct): 15.6
differential drug sensitivity score (CDS-ZH001-2): 8.4
differential drug sensitivity score (ES-ZH008): 13.8
differential drug sensitivity score (ES-ZH016): -1.3
differential drug sensitivity score (ES-ZH002): 2.2
differential drug sensitivity score (CDS-ZH001): -2.7
differential drug sensitivity score (CDS-ZH002): -1.9
differential drug sensitivity score (ES-ZH001): -1
differential drug sensitivity score (ES-ZH009): -2.7
differential drug sensitivity score (ES-ZH007): -2.7
differential drug sensitivity score (ES-ZH004): 7.5

O=c1ncn2nc(Sc3ccc(F)cc3F)ccc2c1-c1c(Cl)cccc1Cl [Neflamapimod]
differential drug sensitivity score (CDS-ZH003): -5.6
differential drug sensitivity score (CDS-ZH002 direct): 1
differential drug sensitivity score (ES-ZH016 direct): 11.9
differential drug sensitivity score (CDS-ZH001-2): 5
differential drug sensitivity score (ES-ZH008): 7.4
differential drug sensitivity score (ES-ZH016): 2.9
differential drug sensitivity score (ES-ZH002): 5.8
differential drug sensitivity score (CDS-ZH001): -2.7
differential drug sensitivity score (CDS-ZH002): -1.2
differential drug sensitivity score (ES-ZH001): 3.5
differential drug sensitivity score (ES-ZH009): 5.9
differential drug sensitivity score (ES-ZH007): 0.5
differential drug sensitivity score (ES-ZH004): 0.5

COc1nc(N)nc2c1ncn2[C@@H]1O[C@H](CO)[C@@H](O)[C@@H]1O [Nelarabine]
differential drug sensitivity score (CDS-ZH003): -2.5
differential drug sensitivity score (CDS-ZH002 direct): -2.5
differential drug sensitivity score (ES-ZH016 direct): -2.5
differential drug sensitivity score (CDS-ZH001-2): -2.5
differential drug sensitivity score (ES-ZH008): 5.2
differential drug sensitivity score (ES-ZH016): -2.5
differential drug sensitivity score (ES-ZH002): 8.4
differential drug sensitivity score (CDS-ZH001): -2.5
differential drug sensitivity score (CDS-ZH002): -2.5
differential drug sensitivity score (ES-ZH001): 3.2
differential drug sensitivity score (ES-ZH009): -2.5
differential drug sensitivity score (ES-ZH007): -1.6
differential drug sensitivity score (ES-ZH004): 1

CCCCN(Cc1ccc(C(=O)NO)cc1)C(=O)Nc1ccccc1 [Nexturastat A]
differential drug sensitivity score (CDS-ZH003): 2.1
differential drug sensitivity score (CDS-ZH002 direct): 2.4
differential drug sensitivity score (ES-ZH016 direct): 4.4
differential drug sensitivity score (CDS-ZH001-2): 5.3
differential drug sensitivity score (ES-ZH008): 5
differential drug sensitivity score (ES-ZH016): -1.3
differential drug sensitivity score (ES-ZH002): 0.9
differential drug sensitivity score (CDS-ZH001): 0.8
differential drug sensitivity score (CDS-ZH002): -0.4
differential drug sensitivity score (ES-ZH001): 2.9
differential drug sensitivity score (ES-ZH009): 0.5
differential drug sensitivity score (ES-ZH007): 2.1
differential drug sensitivity score (ES-ZH004): -0.7
